Assay: Solid-state characterisation of polymorphic Form 1 (hygroscopicity)
Format: physicochemical
Details: crystalline polymorphic Form 1 of the compound of formula (I)

hygroscopicity: not hygroscopic
SMILES: OC[C@H]1O[C@H](Sc2cncc(Br)c2)[C@H](O)[C@@H](n2cc(-c3cc(F)c(F)c(F)c3)nn2)[C@H]1O [Form 1, 5-Bromopyridin-3-yl 3-deoxy-3-[4-(3,4,5-trifluorophenyl)-1H-1,2,3-triazol-1-yl]-1-thio-α-D-galactopyranoside]
